Reference: patent EP1285920A1, “C10 Ester sustituted taxanes as antitumor agents” (Florida State University Research Foundation, Inc., priority 2001, dated 2003)
Where two headings read alike, the source gives them in different places.

Assays:
[1] = tested on: VM46 colon carcinoma; details: for response rate: VM46, i.v. qd x 1 at estimated MTD; for Toxic Deaths / Complete Response / Partial Response / Stable Disease / Survivors: number of mice; for Complete Response / Partial Response / Stable Disease / Survivors: Day 64
Description: Dosing was initiated on Day 1. […] Taxotere was given i.v. at a dose of 70 mg/kg on a qd x 1 schedule.

[2] = tested on: Panc-1 pancreatic carcinoma; assay: In vivo evaluation against Panc-1 human pancreatic carcinoma (Example 17); details: for MDS: i.v. qd x 1 (compounds estimated MTD; Taxol 36 mg/kg split), days until tumor 1.5 g, ended Day 60; for Complete Response / Partial Response / Stable Disease: Day 60; for Mean Score: tumor scoring system
[3] = tested on: A375 melanoma; details: number of mice, i.v. qd x 1 at estimated MTD (Taxol 24 mg/kg, Taxotere 70 mg/kg), 6 mice/group (Taxotere 7); for Survivors: Day 60
Description: Dosing was initiated on Day 1. […] Taxotere was given i.v. on a qd x 1 schedule at a dose of 70 mg/kg. […] The study was terminated on Day 60. Treatment groups are detailed in Table 9.

[4] = tested on: DU145 prostate carcinoma; details: for total response rate: iv; for Toxic Deaths / Survivors: number of 5 mice, Day 91; for Toxic Deaths: i.v. qd x 1 at estimated MTD (Taxol 24 mg/kg as two split doses); for Survivors: i.v. qd x 1 at estimated MTD (Taxol 24 mg/kg split)
Description: Dosing was initiated on Day 1. […] Treatment groups are detailed in Table 5.

[5] = tested on: MX-1 carcinoma; details: for Survivors / Toxic Deaths: number of 6 mice, i.v. qd x 1 at MTD, Day 60; for Survivors: doses as in E17; for Toxic Deaths: mg/kg: Taxol 36 (split dose), 0503 72.6, 0536 49, 0663 159, 0670 123, 0687 159, 0706 108, 0908 159, 0947 76.9, 0951 72.6, 0983 67.4, 0999 49, 1003 49, 1011 108
Summary of the method: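 Mice dosed with a single i.v. bolus (qd x 1) at each compound's MTD, formulated in 5% ethanol, 5% Cremophor, 90% isotonic saline. Study ended Day 60; complete response = tumor not palpable at study end.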

[6] = tested on: HCT116; assay: In Vitro cytotoxicity measured by the cell colony formation assay; type: cell-based, human; details: Homo sapiens, HCT-116; read-out: IN VITRO ID 50 HCT116
Summary of the method: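 Four hundred cells per dish in McCoy's 5a medium with 10% FBS were allowed to attach for 5 h at 37 °C. They were then exposed to compound for 72 h at 37 °C, added as a 10× stock made fresh in medium. After HBSS rinsing and refeeding, colonies were counted after 7 days.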

[7] = tested on: HCT116 carcinoma; details: for Survivors / Toxic Deaths: number of 5 mice, i.v. qd x 1 at MTD, Day 60; for Survivors: doses as in E3; for Toxic Deaths: mg/kg: Taxol 36 (split doses), 0503 72.6, 0536 49, 0663 159, 0670 123, 0687 159, 0706 108, 0908 159, 0947 76.9, 0951 72.6, 0983 72.6, 0999 49, 1003 49, 1011 108
Summary of the method: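 Mice bearing HCT116 tumours received a single i.v. maximum tolerated dose per compound, formulated in 5% ethanol, 5% Cremophor, 90% isotonic saline. Study ended on Day 60; complete response meant no palpable tumour at study end.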

[8] = tested on: A2780 ovarian carcinoma
Description: Dosing was initiated on Day 1. […] Taxotere was given i.v. on a qd x 1 schedule at a dose of 70 mg/kg. […] The study was terminated on Day 60. Treatment groups are detailed in Table 7.

[9] = i.v. qd x 1, mg/kg: Taxol 24, 0499 77, 0503 72.6, 0670 123.1, 0706 107.6, 0838 72.6, 0854 46.6, 0983 67.4, Taxotere 70, 6 mice/group
[10] = number of mice, i.v. qd x 1, mg/kg: Taxol 36, 0499 77, 0503 72.6, 0670 123.1, 0706 107.6, 0838 72.6, 0854 76.9, 6 mice/group
[11] = i.v. qd x 1, mg/kg: Taxol 36, 0499 77, 0503 72.6, 0670 123.1, 0706 107.6, 0838 72.6, 0854 76.9, 6 mice/group

Compound	response rate [1]	Toxic Deaths [1, 9]	Complete Response [1, 9]	Partial Response [1, 9]	Stable Disease [1, 9]	Survivors [1, 9]	MDS ([2]; Panc-1 (Example 17)) [days]	Toxic Deaths [2, 10]	Complete Response [2, 10]	Partial Response [2, 10]	Stable Disease [2, 10]	Mean Score [2, 11]	Toxic Deaths [3]	Survivors [3]	total response rate [4]	Toxic Deaths [4]	Survivors [4]	Partial Response ([5]; iv)	Complete Response ([5]; iv, 1440 h)	Mean Score ([5]; iv, 1440 h)	also measured
CCC(=O)O[C@H]1C(=O)[C@@]2(C)[C@H]([C@H](OC(=O)c3ccccc3)[C@]3(O)C[C@H](OC(=O)[C@H](O)[C@@H](NC(=O)c4ccccc4)c4ccoc4)C(C)=C1C3(C)C)[C@]1(OC(C)=O)CO[C@@H]1C[C@@H]2O [Compound 0670]	16.7-40%	0	0	1	0	1	47 to 56	1	1	0	2	4.2 ± 1.7	0	0	20-50%	0	4	1	1	4.3 ± 1.6	Mean Score ([1]; iv): 2.8 ± 1.2; MDS (n) ([1]; iv, 1536 h): 40.1 ± 5.8 (5) days; Toxic Deaths ([2]; Panc-1 (Example 17), i.v. qd x 1, six mice per group): One; MDS (n) ([2]; mean days of survival until neoplasm reached 1.5 g, i.v. qd x 1, mg/kg: Taxol 36, 0499 77, 0503 72.6, 0670 123.1, 0706 107.6, 0838 72.6, 0854 76.9, 6 mice/group, terminated Day 60): 51.2 ± 5.9 (2) days; MDS (n) ([5]; iv, 1440 h): 28.5 ± 6.1 (4) days; Stable Disease ([5]; iv, 1440 h): 0; Survivors [5]: 2; Toxic Deaths [5]: 0; IC50 [6]: < 1 nM; Partial Response ([7]; iv): 1; Complete Response ([7]; iv, 1440 h): 2; MDS (n) ([7]; iv, 1440 h): 29.8 ± 0.7 (2) days; Mean Score ([7]; iv, 1440 h): 6.6 ± 1.9; Stable Disease ([7]; iv, 1440 h): 0; Survivors [7]: 3; Toxic Deaths [7]: 0
CCC(=O)O[C@H]1C(=O)[C@@]2(C)[C@H]([C@H](OC(=O)c3ccccc3)[C@]3(O)C[C@H](OC(=O)[C@H](O)[C@@H](NC(=O)c4ccccc4)C4CC4)C(C)=C1C3(C)C)[C@]1(OC(C)=O)CO[C@@H]1C[C@@H]2O [Compound 0706]	56%	0	1	2	0	3	47 to 56	0	0	3	2	6.6 ± 1	1	0	20-50%	0	3	0	5	8.3 ± 1.7	MDS (n) ([1]; mean days of survival until neoplasm reached 1.5 g, i.v. qd x 1, mg/kg: Taxol 24, 0499 77, 0503 72.6, 0670 123.1, 0706 107.6, 0838 72.6, 0854 46.6, 0983 67.4, Taxotere 70, 6 mice/group, terminated Day 64): 48.6 ± 0.9 (3) days; Mean Score ([1]; tumor scoring system, i.v. qd x 1, mg/kg: Taxol 24, 0499 77, 0503 72.6, 0670 123.1, 0706 107.6, 0838 72.6, 0854 46.6, 0983 67.4, Taxotere 70, 6 mice/group): 6.2 ± 1.4; Mean Score ([8]; iv, 72.6 mg/kg): 3 ± 0; Complete Response ([8]; iv, 72.6 mg/kg, 1440 h): 0; MDS (n) ([8]; iv, 72.6 mg/kg, 1440 h): 37.0 ± 4.1 (5) days; Partial Respons ([8]; iv, 72.6 mg/kg, 1440 h): 0; Stable Disease ([8]; iv, 72.6 mg/kg, 1440 h): 0; Toxic Deaths ([8]; number of mice, i.v. qd x 1 at estimated MTD (Taxol 24 mg/kg, Taxotere 70 mg/kg, 0983 72.6 mg/kg), 5 mice/group (Taxotere 6)): 0; Survivors ([8]; number of mice, i.v. qd x 1 at estimated MTD (Taxol 24 mg/kg, Taxotere 70 mg/kg, 0983 72.6 mg/kg), 5 mice/group (Taxotere 6), Day 60): 0; complete responses ([4]; DU145, i.v. qd x 1, five mice per group): 2; Stable Disease ([5]; iv, 1440 h): 0; Survivors [5]: 5; Toxic Deaths [5]: 1; IC50 [6]: < 1 nM; Partial Response ([7]; iv): 4; Complete Response ([7]; iv, 1440 h): 1; Mean Score ([7]; iv, 1440 h): 9.2 ± 0.2; Stable Disease ([7]; iv, 1440 h): 0; Survivors [7]: 5; Toxic Deaths [7]: 0
